The results in this text go back to US20230089530A1, “QUINUCLIDINONE ANALOGUES AS ANTICANCER AGENTS” (Newave Pharmaceutical Inc., priority 2020, published 2023).

What is called pIC50 is the negative decadic logarithm of the IC50, by convention in mol/L. Higher therefore signals a low IC50.

Series [1] concerns RS4;11(G101V) cancer cells. Put plainly: In vitro anti-proliferation assay in RS4;11 cell line with G101V mutation (ATPlite luminescence). Conditions: about 72 hours incubation, medium supplemented with 5% FBS or 10% normal human serum. It counts as cell-based. The procedure: Biological Example 1: In Vitro Anti-Proliferation Assay in BCL-2-Dependent Acute Lymphoblastic Leukemia (ALL) Cell Line RS4;11 with G101V Mutation
(§1) The RS4;11 cell line used herein was engineered to stably overexpress the G101V mutant form of human Bcl-2. The cell antiproliferation was assayed by PerkinElmer ATPlite™ Luminescence Assay System. Briefly, the RS4;11(G101V) cancer cells were plated at a density of about 1×10^4 cells per well in Costar 96-well plates, and were incubated with different concentrations of compounds for about 72 hours in medium supplemented with 5% FBS or 10% normal human serum (NHS). One lyophilized substrate solution vial was then reconstituted by adding 5 mL of substrate buffer solution, and was agitated gently until the solution was homogeneous. About 50 μL of mammalian cell lysis solution was added to 100 μL of cell suspension per well of a microplate, and the plate was shaken for about five minutes in an orbital shaker at ˜700 rpm. This procedure was used to lyse the cells and to stabilize the ATP. Next, 50 μL substrate solution was added to the wells and microplate was shaken for five minutes in an orbital shaker at ˜700 rpm. Finally, the luminescence was measured by a PerkinElmer TopCount® Microplate Scintillation Counter. Such assays, carried out with a range of doses of test compounds, allowed the determination of the cellular anti-antiproliferative IC50 of the compounds of the present invention. The following table lists the IC50 values of certain compounds of the invention.
In general terms: ATP-based viability assays read luminescence as a measure of living cells.

The test system of a further series is RS4;11-G101V cell line. Kind of series: Another in vitro anti-proliferation assay in RS4;11-G101V cell line. In kind it is cell-based, human. The procedure:
as §1
The following table lists the IC50 values of another in vitro anti-proliferation assay in RS4;11-G101V cell line.

A further series in a line: Mice PK study. Conditions: CD-1 mouse. In kind it is in vivo. The procedure:
The pharmacokinetics of compounds were evaluated in CD-1 mouse via Intravenous and Oral Administration. The IV dose was administered as a slow bolus in the Jugular vein, and oral doses were administered by gavage. The formulation for IV dosing was 5% DMSO in 20% HPBCD in water, and the PO formulation was 2.5% DMSO, 10% EtOH, 20% Cremphor EL, 67.5% D5W. The PK time point for the IV arm was 5, 15, 30 min, 1, 2, 4, 6, 8, 12, 24 hours post dose, and for PO arm was 15, 30 min, 1, 2, 4, 6, 8, 12, 24 hours post dose. Approximately 0.03 mL blood was collected at each time point. Blood of each sample was transferred into plastic micro centrifuge tubes containing EDTA-K2 and collect plasma within 15 min by centrifugation at 4000 g for 5 minutes in a 4° C. centrifuge. Plasma samples were stored in polypropylene tubes. The samples were stored in a freezer at −75±15° C. prior to analysis. Concentrations of compounds in the plasma samples were analyzed using a LC-MS/MS method. WinNonlin (Phoenix™, version 6.1) or other similar software was used for pharmacokinetic calculations. The following pharmacokinetic parameters were calculated, whenever possible from the plasma concentration versus time data: IV administration: C0, CL, Vd, T1/2, AUCinf, AUClast, MRT, Number of Points for Regression; PO administration: Cmax, Tmax, T1/2, AUCinf, AUClast, F %, Number of Points for Regression. The pharmacokinetic data was described using descriptive statistics such as mean, standard deviation.

Structures are written as SMILES. pIC50: −log10 of the molar value. A value given as a limit tells only on which side of the number the result lay.

Take `CC(C)OCC1(CO)C(=O)C2(C)CCN1CC2` (single isomer, unassigned) [Example 8(isomer 2), 2-(hydroxymethyl)-2-(isopropoxymethyl)-4-methyl-1-azabicyclo[2.2.2]octan-3-one]: the pIC50 in series [1] is > 5.30.

As for `COC[C@@]1(CO)C(=O)C2(C)CCN1CC2` (single isomer, unassigned) [Example 3 (isomer 1)], the negative-log IC50 (pIC50) in series [1] (Homo sapiens, RS4-11, 72 h) is > 5.30.

As for `COC[C@]1(CO)C(=O)[C@H]2CC[N@]1[C@H](C)C2` [Example 15, (1R,2R,4S,6R)-2-(hydroxymethyl)-2-(methoxymethyl)-6-methylquinuclidin-3-one], the values for the pIC50 (in series [1]; with RS4;11-G101V cell line) were > 5.30 and 6.14, respectively. The “potency compared with reference compound APR-246” value with RS4;11-G101V cell line is reported as “more potent than the reference compound APR-246”. Further, in “Mice PK study”, the “bioavailability (in words)” value is on record as “excellent bioavailability”. For the same molecule, the Bioavailabilty in “Mice PK study” (Oral, 100 mpk) worked out at 79%. In the series “Mice PK study” (Oral, 100 mpk, plasma), the AUClas is 26,093 h*ng/mL.

For the molecule `COCC1(CO)C(=O)C2(C(C)C)CCN1CC2` (stereo not shown) [Example 5, 2-(hydroxymethyl)-4-isopropyl-2-(methoxymethyl)-1-azabicyclo[2.2.2]octan-3-one], the negative-log IC50 (pIC50) in series [1] (Homo sapiens, RS4-11, 72 h) is > 5.30.

On to `COC[C@@]1(CO)C(=O)C2(C)CCN1CC2` (single isomer, unassigned) [Example 3 (isomer 2)], for which, in series [1], the pIC50 was < 5.30.

Regarding `COCC1(CO)C(=O)C2(C(F)(F)F)CCN1CC2` (stereo not shown) [Example 10, 2-(hydroxymethyl)-2-(methoxymethyl)-4-(trifluoromethyl)-1-azabicyclo[2.2.2]octan-3-one], the pIC50 in series [1] (Homo sapiens, RS4-11, 72 h) is < 5.30.

As for `COCC1(CO)C(=O)C2(C)CCN1CC2` (stereo not shown) [Example 2, 2-(hydroxymethyl)-2-(methoxymethyl)-4-methyl-1-azabicyclo[2.2.2]octan-3-one], in series [1] (Homo sapiens, RS4-11, 72 h), the pIC50 is > 5.30.

As for `CCOC[C@]1(CO)C(=O)C2(C)CCN1CC2` (single isomer, unassigned) [Example 7(isomer 2)], the negative-log IC50 (pIC50) in series [1] (Homo sapiens, RS4-11, 72 h) is > 5.30.

Turning to `COC[C@@]1(CO)C(=O)[C@@H]2CC[N@@]1[C@@H](C)C2` [Example 16, (1S,2S,4R,6S)-2-(hydroxymethyl)-2-(methoxymethyl)-6-methylquinuclidin-3-one], the pIC50 in series [1] is > 5.30.

For the molecule `COCC1(CO)C(=O)C2(F)CCN1CC2` (stereo not shown) [Example 9, 4-fluoro-2-(hydroxymethyl)-2-(methoxymethyl)-1-azabicyclo[2.2.2]octan-3-one], the pIC50 in series [1] (Homo sapiens, RS4-11, 72 h) was < 5.30.

Turning to `CCOC[C@@]1(CO)C(=O)C2(C)CCN1CC2` (single isomer, unassigned) [Example 7(isomer 1)], in series [1] (Homo sapiens, RS4-11, 72 h), the pIC50 was > 5.30.

As for `CC12CCN(CC1)C(CO)(CO)C2=O` [Example 4, 2,2-bis(hydroxymethyl)-4-methyl-1-azabicyclo[2.2.2]octan-3-one], in series [1] (Homo sapiens, RS4-11, 72 h), the pIC50 is < 5.30.

With `COCC1(CO)C(=O)C2CCN1CC2` (stereo not shown) [APR-246, reference compound], the pIC50 in series [1] was > 5.30; with RS4;11-G101V cell line, 5.75.

Take `CC(C)OCC1(CO)C(=O)C2(C)CCN1CC2` (single isomer, unassigned) [Example 8(isomer 1), 2-(hydroxymethyl)-2-(isopropoxymethyl)-4-methyl-1-azabicyclo[2.2.2]octan-3-one]: the pIC50 in series [1] (Homo sapiens, RS4-11, 72 h) is > 5.30.

Regarding `CCC12CCN(CC1)[C@](CO)(COC)C2=O` (single isomer, unassigned) [Example 6(isomer 2)], the pIC50 in series [1] (Homo sapiens, RS4-11, 72 h) was > 5.30.

`CCC12CCN(CC1)[C@@](CO)(COC)C2=O` (single isomer, unassigned) [Example 6(isomer 1)]: in series [1] (Homo sapiens, RS4-11, 72 h), the pIC50 was > 5.30.
